The target of the assay is EGFR (Homo sapiens, UniProt P00533). The assay can be described thus: EGFR inhibitory assay.

Molecules are shown by their SMILES.

Sequence of EGFR (P00533 669-1210): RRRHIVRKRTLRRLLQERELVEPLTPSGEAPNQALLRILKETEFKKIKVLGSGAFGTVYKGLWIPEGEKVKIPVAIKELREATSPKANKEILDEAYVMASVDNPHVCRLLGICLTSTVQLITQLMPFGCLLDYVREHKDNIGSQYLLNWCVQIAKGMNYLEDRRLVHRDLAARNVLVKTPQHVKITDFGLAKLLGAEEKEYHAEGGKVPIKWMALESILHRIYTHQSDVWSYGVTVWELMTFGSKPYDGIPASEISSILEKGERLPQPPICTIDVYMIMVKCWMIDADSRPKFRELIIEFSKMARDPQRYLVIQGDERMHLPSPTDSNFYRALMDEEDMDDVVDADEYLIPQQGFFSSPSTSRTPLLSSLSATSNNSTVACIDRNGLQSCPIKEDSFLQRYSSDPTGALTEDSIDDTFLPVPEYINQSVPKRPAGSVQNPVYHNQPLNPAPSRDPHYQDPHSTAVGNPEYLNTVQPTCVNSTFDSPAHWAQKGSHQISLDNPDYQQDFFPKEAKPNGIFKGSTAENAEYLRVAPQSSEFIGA

In the case of `O=C(NN=Cc1ccc(F)cc1)c1ccc2[nH]c(-c3ccc(Cl)cc3)nc2c1` [Compound 4d, N′-(4-Fluorobenzylidene)-2-(4-chlorophenyl)-1H-benzimidazole-5-carbohydrazide], the IC50 was found to be 680 ± 50 nM.
Turning to `COc1cc(/C=N/NC(=O)c2ccc3[nH]c(-c4ccc(Cl)cc4)nc3c2)cc(OC)c1OC` [Compound 4h, N′-(3,4,5-Trimethoxybenzylidene)-2-(4-chlorophenyl)-1H-benzimidazole-5 carbohydrazide], the IC50 was 560 ± 50 nM.

Usually IC50 stands for the concentration that inhibits the measured activity by half. A low value points to higher potency.

(Values after article PMC10819888, “Benzimidazole-Based Derivatives as Apoptotic Antiproliferative Agents: Design, Synthesis, Docking, and Mechanistic Studies” (Molecules, 2024).)
